# Reference: article PMC10418426, “A Comprehensive Technology Platform for the Rapid Discovery of Peptide Inhibitors against SARS-CoV-2 Pseudovirus Infection” (International Journal of Molecular Sciences, 2023)
# Starred links: 1 amine or outer side, 2 acyl side, 3 side chain; linkers in the order of their positions; H or OH if unused. Positions of bridges follow the written chain, without caps; N, C: chain ends. Residues, ends and D or L forms follow the SMILES beside them. mXylylene = c1cc(C[*:1])cc(C[*:2])c1
# Target: T1, Wuhan variant RBD-Fc / ACE2 interaction (Homo sapiens, UniProt Q9BYF1)
# T1 construct: purchased RayBiotech
# Assay: biochemical
# Conditions: read-out: percentage of inhibition of RBD binding to ACE2
smiles,measurement,value
C[C@@H](O)[C@@H]1NC(=O)[C@@H]2CCCN2C(=O)[C@H](CCC(N)=O)NC(=O)[C@@H](N)CSCc2cccc(c2)CSC[C@@H](C(N)=O)NC(=O)[C@H](CCC(N)=O)NC(=O)[C@H](Cc2c[nH]c3ccccc23)NC(=O)CNC(=O)[C@H](CCCCN)NC(=O)CNC(=O)[C@H](CC(N)=O)NC1=O [c9_05] (H-CQPTNGKGWQC-NH2; linker 1-11 via mXylylene),inhibition at 100 µM,78%
